Reference: ChEMBL document CHEMBL2424532, “Investigation of an F-18 oxytocin receptor selective ligand via PET imaging” (Bioorg Med Chem Lett, 2013)

Experiments:
Vasopressin V1b receptor = biological target: T1, Vasopressin V1b receptor (Homo sapiens, UniProt P47901); test: Binding affinity to human V1BR by competitive binding assay
T1 sequence (P47901 whole entry): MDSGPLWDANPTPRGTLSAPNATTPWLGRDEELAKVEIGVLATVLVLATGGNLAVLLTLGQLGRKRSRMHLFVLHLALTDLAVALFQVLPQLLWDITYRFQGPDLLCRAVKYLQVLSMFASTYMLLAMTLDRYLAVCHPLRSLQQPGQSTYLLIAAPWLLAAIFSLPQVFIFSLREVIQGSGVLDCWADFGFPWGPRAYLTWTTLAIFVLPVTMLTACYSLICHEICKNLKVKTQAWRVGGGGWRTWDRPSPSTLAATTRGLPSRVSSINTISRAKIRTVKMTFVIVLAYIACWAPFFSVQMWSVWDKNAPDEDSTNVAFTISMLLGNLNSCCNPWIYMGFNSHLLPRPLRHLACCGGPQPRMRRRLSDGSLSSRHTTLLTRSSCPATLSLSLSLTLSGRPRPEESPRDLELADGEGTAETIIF

Vasopressin V2 receptor = Vasopressin V2 receptor (Homo sapiens, UniProt P30518); test: Binding affinity to human V2R by competitive binding assay
Vasopressin V2 receptor, sequence (P30518 whole entry): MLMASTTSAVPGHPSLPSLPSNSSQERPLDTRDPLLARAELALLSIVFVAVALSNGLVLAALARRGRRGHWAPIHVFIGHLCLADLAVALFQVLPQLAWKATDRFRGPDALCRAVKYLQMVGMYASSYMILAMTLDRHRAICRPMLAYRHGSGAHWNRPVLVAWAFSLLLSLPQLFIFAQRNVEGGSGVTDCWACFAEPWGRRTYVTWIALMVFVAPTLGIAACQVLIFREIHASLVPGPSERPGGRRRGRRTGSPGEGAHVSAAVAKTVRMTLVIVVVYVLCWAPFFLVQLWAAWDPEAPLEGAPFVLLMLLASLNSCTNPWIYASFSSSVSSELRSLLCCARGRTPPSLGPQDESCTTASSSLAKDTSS

[1] = biological target: Serotonin (5-HT) receptor; test: Binding affinity to human 5HTB receptor by competitive binding assay; assay type: protein assay
Oxytocin receptor = biological target: T2, Oxytocin receptor (Homo sapiens, UniProt P30559); test: Binding affinity to human OTR by competitive binding assay
T2 sequence (P30559 whole entry): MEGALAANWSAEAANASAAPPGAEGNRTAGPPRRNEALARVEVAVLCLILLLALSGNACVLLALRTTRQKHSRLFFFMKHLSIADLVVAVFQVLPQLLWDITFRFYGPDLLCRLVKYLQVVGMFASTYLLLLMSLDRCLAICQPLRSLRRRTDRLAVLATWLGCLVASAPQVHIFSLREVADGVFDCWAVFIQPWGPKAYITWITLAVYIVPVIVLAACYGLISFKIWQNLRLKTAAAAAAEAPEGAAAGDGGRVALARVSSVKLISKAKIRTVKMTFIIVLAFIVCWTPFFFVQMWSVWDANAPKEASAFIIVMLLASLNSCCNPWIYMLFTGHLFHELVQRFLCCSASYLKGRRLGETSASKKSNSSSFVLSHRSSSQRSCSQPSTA

D(3) dopamine receptor = D(3) dopamine receptor (Homo sapiens, UniProt P35462); test: Binding affinity to human dopamine D3 receptor by competitive binding assay
D(3) dopamine receptor, sequence (P35462 whole entry): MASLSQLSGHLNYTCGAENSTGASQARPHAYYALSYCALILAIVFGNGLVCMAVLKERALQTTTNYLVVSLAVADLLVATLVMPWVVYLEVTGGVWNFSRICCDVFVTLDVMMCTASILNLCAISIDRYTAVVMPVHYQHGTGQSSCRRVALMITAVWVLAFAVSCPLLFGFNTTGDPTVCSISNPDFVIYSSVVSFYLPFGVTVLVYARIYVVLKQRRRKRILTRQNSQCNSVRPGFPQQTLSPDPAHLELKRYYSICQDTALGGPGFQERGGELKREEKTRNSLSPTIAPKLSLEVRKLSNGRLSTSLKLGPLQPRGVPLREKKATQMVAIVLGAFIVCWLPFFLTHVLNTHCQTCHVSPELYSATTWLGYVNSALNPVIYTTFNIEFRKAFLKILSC

[2] = biological target: 5-hydroxytryptamine receptor 2B (Homo sapiens, UniProt P41595); test: Binding affinity to human 5HT2B receptor by competitive binding assay
5-hydroxytryptamine receptor 2B, sequence (P41595 whole entry): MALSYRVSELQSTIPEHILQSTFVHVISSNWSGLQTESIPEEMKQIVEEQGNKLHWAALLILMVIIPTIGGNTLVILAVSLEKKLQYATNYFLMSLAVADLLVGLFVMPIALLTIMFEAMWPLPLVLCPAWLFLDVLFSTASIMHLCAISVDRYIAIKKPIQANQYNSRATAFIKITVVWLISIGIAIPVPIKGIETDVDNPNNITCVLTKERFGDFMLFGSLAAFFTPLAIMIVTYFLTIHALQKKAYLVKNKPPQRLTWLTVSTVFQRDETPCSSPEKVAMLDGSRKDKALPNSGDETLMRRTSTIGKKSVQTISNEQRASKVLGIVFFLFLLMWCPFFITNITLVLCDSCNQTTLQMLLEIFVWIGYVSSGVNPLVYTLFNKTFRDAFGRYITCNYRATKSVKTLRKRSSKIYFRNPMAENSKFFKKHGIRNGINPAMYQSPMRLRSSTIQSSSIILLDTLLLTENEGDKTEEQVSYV

[3] = biological target: 5-hydroxytryptamine receptor 6 (Homo sapiens, UniProt P50406); test: Binding affinity to human 5HT6 receptor by competitive binding assay
5-hydroxytryptamine receptor 6, sequence (P50406 whole entry): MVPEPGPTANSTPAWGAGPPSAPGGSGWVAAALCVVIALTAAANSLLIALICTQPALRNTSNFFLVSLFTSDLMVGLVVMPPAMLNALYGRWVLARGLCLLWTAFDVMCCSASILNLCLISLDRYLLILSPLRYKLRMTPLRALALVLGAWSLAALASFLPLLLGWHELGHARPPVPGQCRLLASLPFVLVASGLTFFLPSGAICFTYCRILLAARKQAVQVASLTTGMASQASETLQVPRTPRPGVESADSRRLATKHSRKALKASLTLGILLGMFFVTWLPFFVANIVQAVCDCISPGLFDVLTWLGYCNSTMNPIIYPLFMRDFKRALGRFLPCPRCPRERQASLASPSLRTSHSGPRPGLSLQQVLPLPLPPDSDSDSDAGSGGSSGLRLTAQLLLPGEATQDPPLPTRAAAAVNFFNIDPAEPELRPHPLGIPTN

[4] = biological target: T3, Alpha-1A adrenergic receptor (Homo sapiens, UniProt P35348); test: Binding affinity to human adrenergic alpha-1A receptor by competitive binding assay
T3 sequence (P35348 whole entry): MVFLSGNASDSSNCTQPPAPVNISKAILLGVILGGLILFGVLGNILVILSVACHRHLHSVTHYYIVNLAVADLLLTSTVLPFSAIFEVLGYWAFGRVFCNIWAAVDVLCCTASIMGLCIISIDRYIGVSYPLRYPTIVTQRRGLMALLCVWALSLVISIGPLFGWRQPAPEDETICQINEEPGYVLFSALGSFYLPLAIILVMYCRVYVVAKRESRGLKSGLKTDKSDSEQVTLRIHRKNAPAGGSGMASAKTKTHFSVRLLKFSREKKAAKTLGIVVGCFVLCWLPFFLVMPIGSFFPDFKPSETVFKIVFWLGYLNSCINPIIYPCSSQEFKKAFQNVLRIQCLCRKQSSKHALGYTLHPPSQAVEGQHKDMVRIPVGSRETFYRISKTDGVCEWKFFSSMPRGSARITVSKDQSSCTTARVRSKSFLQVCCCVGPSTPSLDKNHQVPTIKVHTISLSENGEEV

[5] = biological target: 5-hydroxytryptamine receptor 1B (Homo sapiens, UniProt P28222); test: Binding affinity to human 5HT1B receptor by competitive binding assay
5-hydroxytryptamine receptor 1B, sequence (P28222 whole entry): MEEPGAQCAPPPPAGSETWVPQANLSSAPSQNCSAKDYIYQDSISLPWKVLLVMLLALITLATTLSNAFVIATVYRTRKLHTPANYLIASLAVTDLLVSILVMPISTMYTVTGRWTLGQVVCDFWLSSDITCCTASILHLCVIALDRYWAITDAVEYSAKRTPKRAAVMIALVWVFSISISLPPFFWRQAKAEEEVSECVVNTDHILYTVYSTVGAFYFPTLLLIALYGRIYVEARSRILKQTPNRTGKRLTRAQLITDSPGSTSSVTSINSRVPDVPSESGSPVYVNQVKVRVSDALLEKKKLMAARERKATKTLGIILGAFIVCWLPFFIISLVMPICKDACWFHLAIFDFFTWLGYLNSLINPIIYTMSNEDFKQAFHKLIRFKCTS

[6] = biological target: T4, Muscarinic acetylcholine receptor M4 (Homo sapiens, UniProt P08173); test: Binding affinity to human muscarinic M4 receptor by competitive binding assay
T4 sequence (P08173 whole entry): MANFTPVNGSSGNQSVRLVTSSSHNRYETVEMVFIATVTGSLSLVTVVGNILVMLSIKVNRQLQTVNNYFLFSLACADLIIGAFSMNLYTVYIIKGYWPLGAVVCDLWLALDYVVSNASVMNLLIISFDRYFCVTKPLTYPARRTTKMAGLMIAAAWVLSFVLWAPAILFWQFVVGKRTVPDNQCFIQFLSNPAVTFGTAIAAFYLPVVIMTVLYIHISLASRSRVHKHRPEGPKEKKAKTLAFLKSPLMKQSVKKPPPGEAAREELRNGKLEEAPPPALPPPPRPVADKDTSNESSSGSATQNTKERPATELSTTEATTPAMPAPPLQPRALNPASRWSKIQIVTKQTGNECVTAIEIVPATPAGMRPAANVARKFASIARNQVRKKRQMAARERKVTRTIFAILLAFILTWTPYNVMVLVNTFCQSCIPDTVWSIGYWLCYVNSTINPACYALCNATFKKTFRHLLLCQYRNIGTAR

Vasopressin V1a receptor = Vasopressin V1a receptor (Homo sapiens, UniProt P37288); test: Binding affinity to human V1AR by competitive binding assay
Vasopressin V1a receptor, sequence (P37288 whole entry): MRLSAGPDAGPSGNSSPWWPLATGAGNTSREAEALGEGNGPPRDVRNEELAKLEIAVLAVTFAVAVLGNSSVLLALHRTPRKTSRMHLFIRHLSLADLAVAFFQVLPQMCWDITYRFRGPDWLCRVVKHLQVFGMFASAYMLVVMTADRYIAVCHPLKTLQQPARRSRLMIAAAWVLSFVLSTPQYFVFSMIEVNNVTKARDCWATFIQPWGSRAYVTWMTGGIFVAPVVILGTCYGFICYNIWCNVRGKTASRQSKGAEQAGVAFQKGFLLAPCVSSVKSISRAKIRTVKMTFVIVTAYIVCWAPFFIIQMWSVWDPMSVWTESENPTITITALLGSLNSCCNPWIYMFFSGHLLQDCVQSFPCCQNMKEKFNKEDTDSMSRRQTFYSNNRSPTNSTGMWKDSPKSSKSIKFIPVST

[7] = Lipophilicity, log P of the compound at pH 7.4; assay type: physicochemical; conditions: buffer
[8] = Drug uptake in cynomolgus monkey middle cerebral artery of cerebral cortex at 5.5 mCi up to 15 mins; assay type: ADME, tissue-based, Macaca fascicularis; conditions: in vivo, 0.25 h
Brain [9] = test: Drug uptake in Sprague-Dawley rat brain at 280 uCi after 20 mins by PET analysis; assay type: ADME, tissue-based; conditions: in vivo
[10] = Drug uptake in cynomolgus monkey choroid plexus at 5.5 mCi after 2 hrs in presence of unlabeled compound administered 45 mins before tracer challenge; assay type: ADME, Macaca fascicularis; conditions: in vivo
[11] = Drug uptake in cynomolgus monkey choroid plexus at 5.5 mCi after 2 hrs in presence of unlabeled compound administered 30 mins before tracer challenge; assay type: ADME, Macaca fascicularis; conditions: in vivo
Brain [12] = test: Drug uptake in Sprague-Dawley rat brain at 280 uCi up to 20 mins by PET analysis; assay type: ADME, tissue-based; conditions: in vivo

Structure (SMILES)	Ki (Vasopressin V1b receptor) [µM]	Ki (Vasopressin V2 receptor) [µM]	Ki [1] [nM]	Ki (Oxytocin receptor) [nM]	Ki (D(3) dopamine receptor) [µM]	Ki [2] [nM]	Ki [3] [nM]	Ki [4] [nM]	Ki [5] [nM]	Ki [6] [nM]	Ki (Vasopressin V1a receptor) [µM]	logD [7]	Drug uptake [8]	Drug uptake (Brain [9])	Drug uptake [10]	Drug uptake [11]	Drug uptake (Brain [12])
CS(=O)(=O)N1CCC(Oc2ccc(CC(=O)N3CCC(N4C(=O)CCc5ccccc54)CC3)c(OCCF)c2)CC1	> 10	–	–	–	–	–	–	–	–	–	–	–	–	–	–	–	–
Cl.O=C(Cc1ccc(OC2CCNCC2)cc1OCCF)N1CCC(N2C(=O)CCc3ccccc32)CC1	> 10	8.7	1270	15	6.79	500	187	80	700	1270	5.6	–	–	–	–	–	–
O=C(Cc1ccc(OC2CCNCC2)cc1OCC[18F])N1CCC(N2C(=O)CCc3ccccc32)CC1	–	–	–	–	–	–	–	–	–	–	–	1.57	Active	Not Active	Active	Active	Active
